Data from ChEMBL document CHEMBL1138285, “Structure-activity relationships of adenosines with heterocyclic N6-substituents” (Bioorg Med Chem Lett, 2007).

How the values were obtained:
[1] = target: Adenosine receptor A2a (Rattus norvegicus) (UniProt P30543); assay: Displacement of [3H]ZM-241385 from adenosine A2A receptor expressed in PC12 cell membrane
[2] = system: Adenosine receptor A1 (Mesocricetus auratus); assay: Intrinsic activity at adenosine A1 receptor expressed in DDT1 MF2 cells assessed as maximal inhibition of (-)-isoproterenol-stimulated cAMP accumulation
Homo sapiens = species on record: Homo sapiens; assay: Selectivity for adenosine A1 receptor over adenosine A2A receptor

Sequence of Adenosine receptor A2a (Rattus norvegicus) (P30543 whole entry, looked up): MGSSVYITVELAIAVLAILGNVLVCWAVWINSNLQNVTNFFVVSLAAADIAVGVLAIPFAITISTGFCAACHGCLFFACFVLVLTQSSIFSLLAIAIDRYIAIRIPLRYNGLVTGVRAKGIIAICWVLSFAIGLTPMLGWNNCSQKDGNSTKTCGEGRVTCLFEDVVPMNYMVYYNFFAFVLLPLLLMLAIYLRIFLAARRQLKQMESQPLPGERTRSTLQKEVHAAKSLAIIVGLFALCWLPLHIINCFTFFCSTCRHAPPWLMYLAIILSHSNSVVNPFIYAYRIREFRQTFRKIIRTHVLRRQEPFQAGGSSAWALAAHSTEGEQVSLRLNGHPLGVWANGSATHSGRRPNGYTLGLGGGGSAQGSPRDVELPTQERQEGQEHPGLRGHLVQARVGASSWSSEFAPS

SMILES | Ki [1] [µM] | Intrinsic activity [2] | Ratio Ki (Homo sapiens)
OC[C@H]1O[C@@H](n2cnc3c(N[C@@H]4CCOC4)ncnc32)[C@H](O)[C@@H]1O [TECADENOSON] | > 100 | – | –
CC(C)(C)OC(=O)N1CC[C@@H](Nc2ncnc3c2ncn3[C@@H]2O[C@H](CO)[C@@H](O)[C@H]2O)C1 | > 100 | 0.99 | > 4700
OC[C@H]1O[C@@H](n2cnc3c(N[C@@H]4CC[Se]C4)ncnc32)[C@H](O)[C@@H]1O | 5.5 | – | –
O=C(OCc1ccccc1Br)N1[C@H]2CC[C@H]1[C@H](Nc1ncnc3c1ncn3[C@@H]1O[C@H](CO)[C@@H](O)[C@H]1O)C2 | > 100 | 0.97 | –
O=C(OCc1ccccc1Cl)N1[C@H]2CC[C@H]1[C@H](Nc1ncnc3c1ncn3[C@@H]1O[C@H](CO)[C@@H](O)[C@H]1O)C2 | > 100 | – | –
O=C(OCc1ccccc1)N1CC[C@@H](Nc2ncnc3c2ncn3[C@@H]2O[C@H](CO)[C@@H](O)[C@H]2O)C1 | > 100 | – | –
OC[C@H]1O[C@@H](n2cnc3c(NC4CC5CCC4N5)ncnc32)[C@H](O)[C@@H]1O (stereo not given in full) | 7.8 | – | –
CC(=O)N1CC[C@@H](Nc2ncnc3c2ncn3[C@@H]2O[C@H](CO)[C@@H](O)[C@H]2O)C1 | > 100 | – | –
O=C(OCc1ccccc1)N1[C@H]2CC[C@H]1[C@H](Nc1ncnc3c1ncn3[C@@H]1O[C@H](CO)[C@@H](O)[C@H]1O)C2 | > 100 | – | –
OC[C@H]1O[C@@H](n2cnc3c(N[C@@H]4CCSC4)ncnc32)[C@H](O)[C@@H]1O | 9.7 | – | –
CC(C)(C)OC(=O)N1[C@H]2CC[C@H]1[C@H](Nc1ncnc3c1ncn3[C@@H]1O[C@H](CO)[C@@H](O)[C@H]1O)C2 | 34.7 | 1.01 | –
